Measurements: publication PMC5302928, “[^64Cu]XYIMSR-06: A dual-motif CAIX ligand for PET imaging of clear cell renal cell carcinoma” (Oncotarget, 2016)
Values joined by “and” are separate entries in the source; they are usually repeats but may differ in a detail not shown here. Equal entries are not always repeated.

Legend:
[1] = tested on: CAIX-expressing SK-RC-52 ccRCC tumor xenografts; experiment: Biodistribution of [^64Cu]XYIMSR-06 in mice bearing SK-RC-52 xenografts; type: in vivo
Protocol: Animal experiments were performed in accordance with protocols approved by the Johns Hopkins Animal Care and Use Committee (ACUC). Six-week-old female NOD/SCID mice were purchased from the Animal Resource Core of the Sidney Kimmel Comprehensive Cancer Center of Johns Hopkins and were subcutaneously injected in the upper right flank with 1 × 10^6 SK-RC-52 cells in RPMI 1640 GlutaMAX™ media (Life Technologies, Frederick, MD) supplemented with 1% fetal bovine serum (FBS). Mice were monitored for tumor size and used for PET/CT imaging when the size of the tumor reached 100 mm^3.
Mice bearing SK-RC-52 xenografts within the upper right flank were injected intravenously with 740 kBq (20 μCi) of [^64Cu]XYIMSR-06 in 200 μL of PBS. For in vivo competition (binding specificity) studies, tumor-bearing mice were injected with 740 kBq (20 μCi) of [^64Cu]XYIMSR-06 and 200 nmole of 1 in 200 μL of PBS concurrently. At specific times after injection (1 h, 4 h, 8 h and 24 h), mice (n = 5) were sacrificed by cervical dislocation with blood immediately collected by cardiac puncture. Heart, lungs, pancreas, spleen, fat, brain, muscle, small intestines, liver, stomach, kidney, urinary bladder, and tumor were also collected. Each organ was weighed and the tissue radioactivity was measured with an automated gamma counter (1282 Compugamma CS, Pharmacia/ LKBNuclear, Inc., Mt. Waverly, Vic. Australia). The percentage of injected dose per gram of tissue (%ID/g) was calculated by comparison with samples of a standard dilution of the initial dose. All measurements were corrected for radioactive decay. Data are expressed as mean ± standard deviation (SD).

[2] = In vivo metabolism study, plasma radio-TLC; parameters: species or system NSG mice; conditions: for Percentage of intact radiotracer in plasma: 7.4 MBq i.v.
Protocol: PET acquisition times were: 5 min/bed (1 h) post-injection were developed using a mobile phase consisting of 45% of [Al18F]XYIMSR-04. PET images were co-registered acetonitrile, 55% water and 0.1% trifluoroacetic acid. The with the corresponding 360-slice CT images. Imaging TLC plate was dried and exposed to Kodak Biomax x-ray datasets were reconstructed using the 3D-FORE/2D-OSEM film (Fisher Scientific). Standard solutions had Rf value of iterative algorithm with 2 iterations and 16 subsets, using 0.6. The intensity of bans on the film were calculated with the manufacturer ’s software. Display of images utilized the Image J software (NIH, Bethesda, MD). The percentages Amide software (Dice Holdings, Inc. NY). The 1 h image of intact [64Cu]XYIMSR-06 in plasma were 86.2%, 98.3, is shown below (Supplementary Figure S2): and 100% for 0.5h, 1h, and 2h plasma samples, respectively.
Metabolism study REFERENCES
In vivo metabolism of [64Cu]XYIMSR-06 in NSG 1. Wichert M, Krall N, Decurtins W, Franzini RM, Pretto mice intravenously (tail vein) with 7.4 MBq (200 μCi) F, Schneider P, Neri D, Scheuermann J. Dual-display of [64Cu]XYIMSR-06 in 200 µL of PBS (pH = 7.0). One of small molecules enables the discovery of ligand pairs mouse was euthanized at 0.5, 1, and 2hr time points and facilitates affinity maturation. Nature chemistry. plasma was prepared by centrifugation of whole blood 2015;7:241-9. for 15 minutes at 2,500xg at 4°C. 5 uL of the plasma 2. D’Souza CA, McBride WJ, Sharkey RM, Todaro LJ, samples and control (7.4 kBq of [64Cu]XYIMSR-06) were Goldenberg DM. High-yielding aqueous 18F-labeling of spotted onto silica gel 60 RP-18 F254S glass TLC plates peptides via Al18F chelation. Bioconjugate chemistry.
(EMD Millipore Corp., Billerica, MA) and the plates 2011;22:1793-803. […]

[3] = 8 h+Block (co-injected 200 nmole of 1)
[4] = 24 h+Block (co-injected 200 nmole of 1)
[5] = one phase exponential decay fit

With `CC(CCC(=O)NC(CC(=O)NC(CC(=O)NC(CCCCn1cc(CCCC(=O)Nc2nnc(S(N)(=O)=O)s2)nn1)C(=O)NCCOCCOCCNC(=S)Nc1ccc(CC2CN(CC(=O)O)CCN(CC(=O)[O-])CCN2CC(=O)[O-])cc1)C(=O)O)C(=O)O)(c1ccc(O)cc1)c1ccc(O)cc1.[64Cu+2]` (stereo not shown) [[^64Cu]XYIMSR-06] the Bladder uptake ([1]; 1 h) was 11.12±6.33 %ID/g, the Blood uptake ([1]; 1 h) was 0.66±0.05 %ID/g and the Brain uptake ([1]; 1 h) was 1.46±2.23 %ID/g. The Fat uptake ([1]; 1 h) was 0.80±0.17 %ID/g, the Heart uptake ([1]; 1 h) was 3.41±0.79 %ID/g and the “Kidney (kid) uptake” value ([1]; 1 h) was 33.65±3.91 %ID/g. The Liver uptake ([1]; 1 h) was 3.25±0.97 %ID/g, the Lung uptake ([1]; 1 h) was 25.52±3.35 %ID/g and the “Muscle (mm) uptake” value ([1]; 1 h) was 1.28±0.27 %ID/g. It also gave a Pancreas uptake ([1]; 1 h) of 2.94±0.24 %ID/g, a Sm. intestine uptake ([1]; 1 h) of 7.35±0.78 %ID/g and a Spleen uptake ([1]; 1 h) of 0.36±0.08 %ID/g. For the same molecule, the Stomach uptake ([1]; 1 h) was 14.80±2.27 %ID/g, the Tumor uptake ([1]; 1 h) was 14.5 %ID/g and 14.47±2.69 %ID/g and the “Tumor/kid (kidney) ratio” value ([1]; 1 h) was 0.4±0.1. For the same molecule, the “Tumor/mm (muscle) ratio” value ([1]; 1 h) was 10.8±3.7, the Bladder uptake ([1]; 4 h) was 17.05±8.86 %ID/g and the Blood uptake ([1]; 4 h) was 0.33±0.06 %ID/g. It also gave a Brain uptake ([1]; 4 h) of 0.29±0.06 %ID/g, a Fat uptake ([1]; 4 h) of 0.52±0.29 %ID/g and a Heart uptake ([1]; 4 h) of 1.78±0.33 %ID/g. For the same molecule, the “Kidney (kid) uptake” value ([1]; 4 h) was 19.99±2.88 %ID/g, the Liver uptake ([1]; 4 h) was 2.18±0.57 %ID/g and the Lung uptake ([1]; 4 h) was 12.03±1.61 %ID/g. For the same molecule, the “Muscle (mm) uptake” value ([1]; 4 h) was 0.70±0.18 %ID/g, the Pancreas uptake ([1]; 4 h) was 1.36±0.19 %ID/g and the Sm. intestine uptake ([1]; 4 h) was 4.15±0.69 %ID/g. For the same molecule, the Spleen uptake ([1]; 4 h) was 0.24±0.04 %ID/g, the Stomach uptake ([1]; 4 h) was 8.19±0.97 %ID/g and the Tumor uptake ([1]; 4 h) was 19.3 %ID/g and 19.31±4.51 %ID/g. The Tumor/Blood ratio ([1]; 4 h) was 57.7±9.3, the “Tumor/kid (kidney) ratio” value ([1]; 4 h) was 1.0±0.1 and the “Tumor/mm (muscle) ratio” value ([1]; 4 h) was 29.4±9.9. It also gave a Bladder uptake ([1]; 8 h) of 7.43±7.72 %ID/g, a Blood uptake ([1]; 8 h) of 0.13±0.02 %ID/g and a Brain uptake ([1]; 8 h) of 0.24±0.06 %ID/g. For the same molecule, the Fat uptake ([1]; 8 h) was 0.28±0.27 %ID/g, the Heart uptake ([1]; 8 h) was 0.65±0.10 %ID/g and the “Kidney (kid) uptake” value ([1]; 8 h) was 8.14±1.15 %ID/g. The Liver uptake ([1]; 8 h) was 0.99±0.22 %ID/g, the Lung uptake ([1]; 8 h) was 4.64±0.58 %ID/g and the “Muscle (mm) uptake” value ([1]; 8 h) was 0.21±0.05 %ID/g. For the same molecule, the Pancreas uptake ([1]; 8 h) was 0.47±0.21 %ID/g, the Sm. intestine uptake ([1]; 8 h) was 1.98±0.14 %ID/g and the Spleen uptake ([1]; 8 h) was 0.18±0.02 %ID/g. For the same molecule, the Stomach uptake ([1]; 8 h) was 4.02±0.53 %ID/g, the Tumor uptake ([1]; 8 h) was 16.74±1.58 %ID/g and the Tumor/Blood ratio ([1]; 8 h) was 129.6±18.8. For the same molecule, the “Tumor/kid (kidney) ratio” value ([1]; 8 h) was 2.1 and 2.1 ± 0.3 and 2.1±0.26, the “Tumor/mm (muscle) ratio” value ([1]; 8 h) was 84.3±21.0 and the Bladder uptake [1, 3] was 1.45±1.53 %ID/g. The Blood uptake [1, 3] was 0.08±0.01 %ID/g, the Brain uptake [1, 3] was 0.04±0.01 %ID/g and the Fat uptake [1, 3] was 0.05±0.01 %ID/g. For the same molecule, the Heart uptake [1, 3] was 0.16±0.03 %ID/g, the “Kidney (kid) uptake” value [1, 3] was 1.82±0.39 %ID/g and the Liver uptake [1, 3] was 0.55±0.08 %ID/g. For the same molecule, the Lung uptake [1, 3] was 0.77±0.14 %ID/g, the “Muscle (mm) uptake” value [1, 3] was 0.05±0.02 %ID/g and the Pancreas uptake [1, 3] was 0.14±0.03 %ID/g. The Sm. intestine uptake [1, 3] was 0.38±0.06 %ID/g, the Spleen uptake [1, 3] was 0.14±0.02 %ID/g and the Stomach uptake [1, 3] was 0.69±0.18 %ID/g. The Tumor uptake [1, 3] was 2.39±0.24 %ID/g, the Tumor/Blood ratio [1, 3] was 32.0±3.8 and the “Tumor/kid (kidney) ratio” value [1, 3] was 1.3±10.2. The “Tumor/mm (muscle) ratio” value [1, 3] was 53.0±12.6, the “Effect of co-injection of 200 nmole of 1 on tumor uptake (binding specificity)” value ([1]; 8 h and 24 h) was “blocked tumor uptake” and the “All other tumor-to-organ ratios tested (other than kidney and lung)” value ([1]; 24 h) was at least 10. For the same molecule, the Bladder uptake ([1]; 24 h) was 0.34±0.09 %ID/g, the Brain uptake ([1]; 24 h) was 0.13±0.02 %ID/g and the Fat uptake ([1]; 24 h) was 0.03±0.01 %ID/g. For the same molecule, the Heart uptake ([1]; 24 h) was 0.12±0.03 %ID/g, the “Kidney (kid) uptake” value ([1]; 24 h) was 0.90±0.12 %ID/g and the Liver uptake ([1]; 24 h) was 0.38±0.03 %ID/g. For the same molecule, the Lung uptake ([1]; 24 h) was 1.27±0.38 %ID/g, the “Muscle (mm) uptake” value ([1]; 24 h) was 0.02±0.01 %ID/g and the Pancreas uptake ([1]; 24 h) was 0.21±0.29 %ID/g. The Sm. intestine uptake ([1]; 24 h) was 0.47±0.03 %ID/g, the Spleen uptake ([1]; 24 h) was 0.09±0.01 %ID/g and the Stomach uptake ([1]; 24 h) was 0.65±0.04 %ID/g. The Tumor uptake ([1]; 24 h) was 6.2 %ID/g and 6.23±1.41 %ID/g, the Tumor-to-lung ratio ([1]; 24 h) was 4.9 and the Tumor/Blood ratio ([1]; 24 h) was 142.6±115.8. The “Tumor/kid (kidney) ratio” value ([1]; 24 h) was 7.1 and 7.1±2.5, the Bladder uptake [1, 4] was 0.45±0.50 %ID/g and the Blood uptake [1, 4] was 0.01±0.08 %ID/g. It also gave a Brain uptake [1, 4] of 0.02±0.01 %ID/g, a Fat uptake [1, 4] of 0.01±0.01 %ID/g and a Heart uptake [1, 4] of 0.08±0.01 %ID/g. The “Kidney (kid) uptake” value [1, 4] was 0.48±0.09 %ID/g, the Liver uptake [1, 4] was 0.42±0.04 %ID/g and the Lung uptake [1, 4] was 0.29±0.05 %ID/g. The “Muscle (mm) uptake” value [1, 4] was 0.04±0.06 %ID/g, the Pancreas uptake [1, 4] was 0.07±0.02 %ID/g and the Sm. intestine uptake [1, 4] was 0.19±0.05 %ID/g. It also gave a Spleen uptake [1, 4] of 0.11±0.04 %ID/g, a Stomach uptake [1, 4] of 0.29±0.04 %ID/g and a Tumor uptake [1, 4] of 1.20±0.47 %ID/g. The Tumor/Blood ratio [1, 4] was 27.1±26.7, the “Tumor/kid (kidney) ratio” value [1, 4] was 2.4±0.4 and the “Tumor/mm (muscle) ratio” value [1, 4] was 49.0±28.7. The “Calculated half-life, Bladder” value [1, 5] was 116.2 h, the “Calculated half-life, Blood” value [1, 5] was 2.153 h and the “Calculated half-life, Brain” value [1, 5] was 0.860 h. For the same molecule, the “Calculated half-life, Fat” value [1, 5] was 4.666 h, the “Calculated half-life, Heart” value [1, 5] was 2.293 h and the “Calculated half-life, Kidney” value [1, 5] was 3.591 h. For the same molecule, the “Calculated half-life, Liver” value [1, 5] was 3.375 h, the “Calculated half-life, Lung” value [1, 5] was 2.542 h and the “Calculated half-life, Muscle” value [1, 5] was 3.035 h. For the same molecule, the “Calculated half-life, Pancreas” value [1, 5] was 2.330 h, the “Calculated half-life, SK-RC-52 tumor” value [1, 5] was 996.1 h and the “Calculated half-life, Small intestine” value [1, 5] was 3.322 h. The “Calculated half-life, Spleen” value [1, 5] was 4.008 h, the “Calculated half-life, Stomach” value [1, 5] was 3.397 h and the “Radiotracer uptake within liver” value ([1]; within 24 h) was “no significant radiotracer uptake within liver”. The “Percentage of intact radiotracer in plasma” value (“Percentage” below) ([2]; 0.5h plasma sample) was 86.2%, the “Percentage” value ([2]; 1h plasma sample) was 98.3% and the “Percentage” value ([2]; 2h plasma sample) was 100%. The “In vivo stability by blood metabolites (radio thin layer chromatography)” value ([2]; post-injection) was “stable up to 2 h post-injection”.
